Here are results for six molecules from patent publication US20160128339A1, “CHROMOBACTERIUM FORMULATIONS, COMPOSITIONS, METABLOITES AND THEIR USES” (priority 2011, published 2016).

Experiment [1] relates to TSSM. The experiment is described as follows: TSSM control on field strawberry transplants. The experiment is classed as in vivo, Tetranychus urticae. To be noted: rate/acre: abamectin 16 fl. oz., bifenzate 1 lb + INDUCE, COHERE 16 fl. oz., spiromesifin 12 fl. oz. + INDUCE, fenpyroximate 32 fl. oz., hexythiazox 6 oz.; for Number of eggs TSSM/leaflet day 90 / Number of motile TSSM/leaflet day 90: before first spray. On the procedure:
The efficacy of five traditional compounds and MBI-203 ingredients were evaluated for TSSM control on field strawberry transplants at the Florida Gulf Coast Research and Education Center. Seedlings were transplanted in the Field (day 0), Each 12.5-ft. plot consisted of 20 plants. Plots were infested four times from day 55 through day 71 with 10 to 20 motile TSSM per plant. Seventeen treatments of various rates and schedules of application of miticides, some combined with an adjuvant, and a non-treated check were replicated four times in a RCB design. Treatments were applied using a hand held sprayer with a spray wand outfitted with a nozzle containing a 45-degree core and a number four disc. The sprayer was pressurized by CO2, to 40 psi, and calibrated to deliver 100 gal per acre. Samples were collected weekly from day 90 before first spray through 2 wks after the last application of treatments (day 154). Samples consisted of ten randomly selected leaflets per plot and were collected from the middle one-third stratum of the plants. Motile and egg TSSM were brushed from the leaflets onto rotating sticky discs and counted. No phytotoxicity was observed.

The test system of experiment [2] is M. hapla nematodes. The experiment is described as follows: In vitro 96-well nematode immobility bioassay. It is filed as in vivo. To be noted: M. hapla J2; 100 μl of 4 mg/ml sample; 24 hour at 25° C. On the procedure: The fractions and pure compounds were dissolved in Dimethylsulfoxide (DMSO) and were tested in an in vitro 96-well plastic cell-culture plate bioassay. Around 15-20 nematodes in a 50 μl water solution were exposed to 100 μl of a 4 mg/ml of sample for a 24 hour period at 25° C. Once the incubation period was completed, results were recorded based on a visual grading of immobility of the juvenile nematodes (J2°s) in each well treated with sampler; each treatment was tested in well repetitions of four. […] Three controls were included in each trial; 1 positive (1% Avid) & 2 negative (DMSO & water). Both trials (T1) and (T2) were carried out using M. hapla nematodes.

Take `COc1ccc(-c2ccccc2)cc1NNC(=O)OC(C)C` [Bifenzate]: in experiment [1], the “Number of eggs TSSM/leaflet day 90” value is reported as 3.8, the “Number of motile TSSM/leaflet day 90” value came to 3.8, the “Number of eggs TSSM/leaflet day 98” value was 6.0 and the “Number of eggs TSSM/leaflet day 105” value worked out at 6.0. In addition, in experiment [1], the “Number of eggs TSSM/leaflet day 111” value worked out at 0.8, the “Number of eggs TSSM/leaflet day 118” value was found to be 8.3, the “Number of eggs TSSM/leaflet day 125” value came out at 20.5 and the “Number of eggs TSSM/leaflet day 132” value is 3.01. Further, in experiment [1], the “Number of eggs TSSM/leaflet day 139” value stood at 28.0, the “Number of eggs TSSM/leaflet day 146” value was 66.5, the “Number of eggs TSSM/leaflet day 154” value is 128.3 and the “Number of motile TSSM/leaflet day 98” value stood at 6.0. Besides, in experiment [1], the “Number of motile TSSM/leaflet day 105” value is on record as 6.0, the “Number of motile TSSM/leaflet day 111” value amounted to 0.8, the “Number of motile TSSM/leaflet day 118” value is listed as 8.3 and the “Number of motile TSSM/leaflet day 125” value was 20.5. In experiment [1], the “Number of motile TSSM/leaflet day 132” value was determined as 3.0, the “Number of motile TSSM/leaflet day 139” value amounted to 28.0, the “Number of motile TSSM/leaflet day 146” value is 66.5 and the “Number of motile TSSM/leaflet day 154” value is reported as 128.3.

On to `Cc1nn(C)c(Oc2ccccc2)c1C=NOCc1ccc(C(=O)OC(C)(C)C)cc1` [Fenpyroximate], for which, in experiment [1], the “Number of eggs TSSM/leaflet day 90” value was 9.3, the “Number of motile TSSM/leaflet day 90” value was found to be 4.5, the “Number of eggs TSSM/leaflet day 98” value is on record as 11.8 and the “Number of eggs TSSM/leaflet day 105” value is listed as 12.3. Further, in experiment [1], the “Number of eggs TSSM/leaflet day 111” value came to 12.5, the “Number of eggs TSSM/leaflet day 118” value was 1.0, the “Number of eggs TSSM/leaflet day 125” value was determined as 34.5 and the “Number of eggs TSSM/leaflet day 132” value was determined as 20.8. Further, in experiment [1], the “Number of eggs TSSM/leaflet day 139” value stood at 28.5, the “Number of eggs TSSM/leaflet day 146” value amounted to 97.3, the “Number of eggs TSSM/leaflet day 154” value amounted to 240.8 and the “Number of motile TSSM/leaflet day 98” value is given as 3.8. In experiment [1], the “Number of motile TSSM/leaflet day 105” value was found to be 6.5, the “Number of motile TSSM/leaflet day 111” value came to 2.8, the “Number of motile TSSM/leaflet day 118” value was found to be 2.0 and the “Number of motile TSSM/leaflet day 125” value stood at 7.3. In experiment [1], the “Number of motile TSSM/leaflet day 132” value is 5.3, the “Number of motile TSSM/leaflet day 139” value was found to be 10.0, the “Number of motile TSSM/leaflet day 146” value is given as 34.3 and the “Number of motile TSSM/leaflet day 154” value was 145.3.

In the case of `C[C@@H]1[C@@H](c2ccc(Cl)cc2)SC(=O)N1C(=O)NC1CCCCC1` [Hexythiazox], in experiment [1], the “Number of eggs TSSM/leaflet day 90” value stood at 2.0, the “Number of motile TSSM/leaflet day 90” value stood at 2.0, the “Number of eggs TSSM/leaflet day 98” value is 8.5 and the “Number of eggs TSSM/leaflet day 105” value is recorded as 15.0. In experiment [1], the “Number of eggs TSSM/leaflet day 111” value is given as 17.0, the “Number of eggs TSSM/leaflet day 118” value is recorded as 22.0, the “Number of eggs TSSM/leaflet day 125” value is 71.5 and the “Number of eggs TSSM/leaflet day 132” value was 128.5. Besides, in experiment [1], the “Number of eggs TSSM/leaflet day 139” value worked out at 281.5, the “Number of eggs TSSM/leaflet day 146” value is on record as 393.5, the “Number of eggs TSSM/leaflet day 154” value stood at 533.0 and the “Number of motile TSSM/leaflet day 98” value was 1.8. In experiment [1], the “Number of motile TSSM/leaflet day 105” value is reported as 2.8, the “Number of motile TSSM/leaflet day 111” value was 6.0, the “Number of motile TSSM/leaflet day 118” value turned out to be 13.8 and the “Number of motile TSSM/leaflet day 125” value was 23.0. In experiment [1], the “Number of motile TSSM/leaflet day 132” value was determined as 57.5, the “Number of motile TSSM/leaflet day 139” value is listed as 103.3, the “Number of motile TSSM/leaflet day 146” value amounted to 196.0 and the “Number of motile TSSM/leaflet day 154” value was 285.5.

Regarding `Cc1cc(C)c(C2=C(OC(=O)CC(C)(C)C)C3(CCCC3)OC2=O)c(C)c1` [Spiromesifin], in experiment [1], the “Number of eggs TSSM/leaflet day 90” value came to 7.3, the “Number of motile TSSM/leaflet day 90” value is reported as 2.8, the “Number of eggs TSSM/leaflet day 98” value came out at 5.3 and the “Number of eggs TSSM/leaflet day 105” value came out at 7.3. Besides, in experiment [1], the “Number of eggs TSSM/leaflet day 111” value amounted to 5.0, the “Number of eggs TSSM/leaflet day 118” value was 1.5, the “Number of eggs TSSM/leaflet day 125” value turned out to be 2.3 and the “Number of eggs TSSM/leaflet day 132” value was determined as 2.8. Further, in experiment [1], the “Number of eggs TSSM/leaflet day 139” value came out at 0.8, the “Number of eggs TSSM/leaflet day 146” value was determined as 4.5, the “Number of eggs TSSM/leaflet day 154” value worked out at 25.5 and the “Number of motile TSSM/leaflet day 98” value came to 2.3. In experiment [1], the “Number of motile TSSM/leaflet day 105” value is recorded as 2.0, the “Number of motile TSSM/leaflet day 111” value is 2.3, the “Number of motile TSSM/leaflet day 118” value is 0.5 and the “Number of motile TSSM/leaflet day 125” value is given as 0.8. Besides, in experiment [1], the “Number of motile TSSM/leaflet day 132” value was determined as 0.5, the “Number of motile TSSM/leaflet day 139” value worked out at 2.5, the “Number of motile TSSM/leaflet day 146” value was 2.8 and the “Number of motile TSSM/leaflet day 154” value turned out to be 6.0.

On to Abamectin, for which, in experiment [1], the “Number of eggs TSSM/leaflet day 90” value was determined as 6.8, the “Number of motile TSSM/leaflet day 90” value was 8.5, the “Number of eggs TSSM/leaflet day 98” value came to 17.0 and the “Number of eggs TSSM/leaflet day 105” value is given as 26.5. Moreover, in experiment [1], the “Number of eggs TSSM/leaflet day 111” value is on record as 12.0, the “Number of eggs TSSM/leaflet day 118” value is given as 1.3, the “Number of eggs TSSM/leaflet day 125” value was found to be 2.3 and the “Number of eggs TSSM/leaflet day 132” value worked out at 6.5. Also, in experiment [1], the “Number of eggs TSSM/leaflet day 139” value came out at 3.5, the “Number of eggs TSSM/leaflet day 146” value is reported as 3.5, the “Number of eggs TSSM/leaflet day 154” value was 41.3 and the “Number of motile TSSM/leaflet day 98” value was 4.5. For the same molecule, in experiment [1], the “Number of motile TSSM/leaflet day 105” value is on record as 6.3, the “Number of motile TSSM/leaflet day 111” value is 5.3, the “Number of motile TSSM/leaflet day 118” value was found to be 0.5 and the “Number of motile TSSM/leaflet day 125” value was 0.5. In addition, in experiment [1], the “Number of motile TSSM/leaflet day 132” value amounted to 3.0, the “Number of motile TSSM/leaflet day 139” value is 6.3, the “Number of motile TSSM/leaflet day 146” value stood at 6.8 and the “Number of motile TSSM/leaflet day 154” value is recorded as 15.3.

For Oligo-(β-hydroxybutyric acid), the immobility in experiment [2] is reported as 75%.
